Measurements published in PubChem BioAssay (NCI).
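Method: 48-hour compound exposure of cells in 96-well plates, five concentrations, linear interpolation of endpoints. The concentration for full growth arrest is given as TGI.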

Key:
Assay in all cases: NCI anticancer screen, dose series, 48 h
DMS 114 small cell lung = tested on: DMS 114 small cell lung
OVCAR-4 ovarian = tested on: OVCAR-4 ovarian
HOP-18 NSCLC = tested on: HOP-18 NSCLC
SK-MEL-28 melanoma = tested on: SK-MEL-28 melanoma
RXF 393 renal = tested on: RXF 393 renal
XF 498 CNS = tested on: XF 498 CNS
UACC-257 melanoma = tested on: UACC-257 melanoma
IGROV1 ovarian = tested on: IGROV1 ovarian
LOX IMVI melanoma = tested on: LOX IMVI melanoma
HCT-116 colon = tested on: HCT-116 colon
SF-268 CNS = tested on: SF-268 CNS
OVCAR-5 ovarian = tested on: OVCAR-5 ovarian
K-562 leukemia = tested on: K-562 leukemia
A498 renal = tested on: A498 renal
HL-60(TB) leukemia = tested on: HL-60(TB) leukemia
SNB-78 CNS = tested on: SNB-78 CNS
MALME-3M melanoma = tested on: MALME-3M melanoma
HT29 colon = tested on: HT29 colon
DMS 273 small cell lung = tested on: DMS 273 small cell lung
NCI-H460 lung = tested on: NCI-H460 lung
NCI-H23 lung = tested on: NCI-H23 lung
SW-620 colon = tested on: SW-620 colon
M19-MEL melanoma = tested on: M19-MEL melanoma
TK-10 renal = tested on: TK-10 renal
OVCAR-3 ovarian = tested on: OVCAR-3 ovarian
NCI-H226 lung = tested on: NCI-H226 lung
ACHN renal = tested on: ACHN renal
786-0 renal = tested on: 786-0 renal
MOLT-4 leukemia = tested on: MOLT-4 leukemia
HOP-62 NSCLC = tested on: HOP-62 NSCLC
SNB-19 CNS = tested on: SNB-19 CNS
COLO 205 colon = tested on: COLO 205 colon
KM20L2 colon = tested on: KM20L2 colon
CAKI-1 renal = tested on: CAKI-1 renal
UO-31 renal = tested on: UO-31 renal
SF-295 CNS = tested on: SF-295 CNS
DLD-1 colon = tested on: DLD-1 colon
EKVX NSCLC = tested on: EKVX NSCLC
SN12C renal = tested on: SN12C renal
M14 melanoma = tested on: M14 melanoma
HCC-2998 colon = tested on: HCC-2998 colon
SR leukemia = tested on: SR leukemia
HCT-15 colon = tested on: HCT-15 colon
SK-OV-3 ovarian = tested on: SK-OV-3 ovarian
LXFL 529 NSCLC = tested on: LXFL 529 NSCLC
A549 NSCLC = tested on: A549 NSCLC
SF-539 CNS = tested on: SF-539 CNS
UACC-62 melanoma = tested on: UACC-62 melanoma
KM12 colon = tested on: KM12 colon
SNB-75 CNS = tested on: SNB-75 CNS
HOP-92 NSCLC = tested on: HOP-92 NSCLC
CCRF-CEM leukemia = tested on: CCRF-CEM leukemia
OVCAR-8 ovarian = tested on: OVCAR-8 ovarian
SK-MEL-5 melanoma = tested on: SK-MEL-5 melanoma
SK-MEL-2 melanoma = tested on: SK-MEL-2 melanoma
U251 CNS = tested on: U251 CNS
RXF-631 renal = tested on: RXF-631 renal
RPMI-8226 leukemia = tested on: RPMI-8226 leukemia

`Cc1cc(C)nc(NS(=O)(=O)c2ccc(Nc3c4ccccc4nc4c(C(=O)N5CCN(CCO)CC5)cccc34)cc2)n1` gave a TGI (DMS 114 small cell lung) greater than 100 µM, a TGI (OVCAR-4 ovarian) greater than 100 µM and a TGI (HOP-18 NSCLC) greater than 100 µM. The TGI (SK-MEL-28 melanoma) was greater than 100 µM, the TGI (RXF 393 renal) was greater than 100 µM and the TGI (XF 498 CNS) was greater than 100 µM. The TGI (UACC-257 melanoma) was greater than 100 µM, the TGI (IGROV1 ovarian) was greater than 100 µM and the TGI (LOX IMVI melanoma) was greater than 100 µM. The TGI (HCT-116 colon) was greater than 100 µM, the TGI (SF-268 CNS) was greater than 100 µM and the TGI (OVCAR-5 ovarian) was greater than 100 µM. For the same compound, the TGI (K-562 leukemia) was greater than 100 µM, the TGI (A498 renal) was greater than 100 µM and the TGI (HL-60(TB) leukemia) was greater than 100 µM. It also gave a TGI (SNB-78 CNS) greater than 100 µM, a TGI (MALME-3M melanoma) greater than 100 µM and a TGI (HT29 colon) greater than 100 µM. For the same compound, the TGI (DMS 273 small cell lung) was greater than 100 µM, the TGI (NCI-H460 lung) was greater than 100 µM and the TGI (NCI-H23 lung) was greater than 100 µM. It also gave a TGI (SW-620 colon) greater than 100 µM, a TGI (M19-MEL melanoma) greater than 100 µM and a TGI (TK-10 renal) greater than 100 µM. The TGI (OVCAR-3 ovarian) was greater than 100 µM, the TGI (NCI-H226 lung) was greater than 100 µM and the TGI (ACHN renal) was greater than 100 µM. It also gave a TGI (786-0 renal) greater than 100 µM, a TGI (MOLT-4 leukemia) greater than 100 µM and a TGI (HOP-62 NSCLC) greater than 100 µM. For the same compound, the TGI (SNB-19 CNS) was greater than 100 µM, the TGI (COLO 205 colon) was greater than 100 µM and the TGI (KM20L2 colon) was greater than 100 µM. It also gave a TGI (CAKI-1 renal) greater than 100 µM, a TGI (UO-31 renal) greater than 100 µM and a TGI (SF-295 CNS) greater than 100 µM. For the same compound, the TGI (DLD-1 colon) was greater than 100 µM, the TGI (EKVX NSCLC) was greater than 100 µM and the TGI (SN12C renal) was greater than 100 µM. For the same compound, the TGI (M14 melanoma) was greater than 100 µM, the TGI (HCC-2998 colon) was greater than 100 µM and the TGI (SR leukemia) was greater than 100 µM. It also gave a TGI (HCT-15 colon) greater than 100 µM, a TGI (SK-OV-3 ovarian) greater than 100 µM and a TGI (LXFL 529 NSCLC) greater than 100 µM. For the same compound, the TGI (A549 NSCLC) was greater than 100 µM, the TGI (SF-539 CNS) was greater than 100 µM and the TGI (UACC-62 melanoma) was greater than 100 µM. For the same compound, the TGI (KM12 colon) was greater than 100 µM, the TGI (SNB-75 CNS) was greater than 100 µM and the TGI (HOP-92 NSCLC) was greater than 100 µM. For the same compound, the TGI (CCRF-CEM leukemia) was greater than 100 µM, the TGI (OVCAR-8 ovarian) was greater than 100 µM and the TGI (SK-MEL-5 melanoma) was greater than 100 µM. It also gave a TGI (SK-MEL-2 melanoma) greater than 100 µM and a TGI (U251 CNS) greater than 100 µM.

Work on `O=C1c2cccc3cccc(c23)C(=O)N1CCN(CCO)CCO` yielded a TGI (OVCAR-4 ovarian) of 66 µM, a TGI (HOP-18 NSCLC) greater than 100 µM and a TGI (SK-MEL-28 melanoma) greater than 100 µM. The TGI (RXF 393 renal) was 92.2 µM, the TGI (XF 498 CNS) was 66.5 µM and the TGI (UACC-257 melanoma) was 54 µM. It also gave a TGI (IGROV1 ovarian) greater than 100 µM, a TGI (LOX IMVI melanoma) of 34.5 µM and a TGI (HCT-116 colon) of 46.6 µM. The TGI (SF-268 CNS) was greater than 100 µM, the TGI (OVCAR-5 ovarian) was 49.1 µM and the TGI (K-562 leukemia) was 90.6 µM. It also gave a TGI (A498 renal) of 41.3 µM, a TGI (HL-60(TB) leukemia) greater than 100 µM and a TGI (SNB-78 CNS) greater than 100 µM. It also gave a TGI (MALME-3M melanoma) of 46.3 µM, a TGI (HT29 colon) of 76.1 µM and a TGI (DMS 273 small cell lung) of 66.3 µM. For the same compound, the TGI (NCI-H460 lung) was 69.9 µM, the TGI (NCI-H23 lung) was 74.8 µM and the TGI (SW-620 colon) was 46 µM. It also gave a TGI (M19-MEL melanoma) of 43.8 µM, a TGI (TK-10 renal) of 62.3 µM and a TGI (OVCAR-3 ovarian) greater than 100 µM. It also gave a TGI (NCI-H226 lung) of 40.1 µM, a TGI (ACHN renal) of 67.5 µM and a TGI (RXF-631 renal) greater than 100 µM. It also gave a TGI (786-0 renal) greater than 100 µM, a TGI (MOLT-4 leukemia) of 80.8 µM and a TGI (HOP-62 NSCLC) greater than 100 µM. It also gave a TGI (SNB-19 CNS) greater than 100 µM, a TGI (COLO 205 colon) of 30.2 µM and a TGI (RPMI-8226 leukemia) of 56.4 µM. It also gave a TGI (KM20L2 colon) of 56.6 µM, a TGI (UO-31 renal) greater than 100 µM and a TGI (SF-295 CNS) greater than 100 µM. For the same compound, the TGI (DLD-1 colon) was greater than 100 µM, the TGI (EKVX NSCLC) was 90.9 µM and the TGI (SN12C renal) was 74.3 µM. The TGI (M14 melanoma) was 46.8 µM, the TGI (HCC-2998 colon) was 84.9 µM and the TGI (SR leukemia) was 44.9 µM. It also gave a TGI (HCT-15 colon) of 56.2 µM, a TGI (SK-OV-3 ovarian) greater than 100 µM and a TGI (LXFL 529 NSCLC) greater than 100 µM. The TGI (A549 NSCLC) was 70.7 µM, the TGI (SF-539 CNS) was 86.5 µM and the TGI (UACC-62 melanoma) was 37.5 µM. The TGI (KM12 colon) was greater than 100 µM, the TGI (SNB-75 CNS) was greater than 100 µM and the TGI (HOP-92 NSCLC) was 83 µM. It also gave a TGI (CCRF-CEM leukemia) greater than 100 µM, a TGI (OVCAR-8 ovarian) of 35 µM and a TGI (SK-MEL-5 melanoma) of 33.6 µM. The TGI (SK-MEL-2 melanoma) was 30.2 µM and the TGI (U251 CNS) was greater than 100 µM.
